{"source": "the Kinase Knowledgebase extract (Sharma et al. 2016)", "data": [{"biological_target": "MAPK14 (UniProt Q16539)", "sequence (Q16539 whole entry, looked up)": "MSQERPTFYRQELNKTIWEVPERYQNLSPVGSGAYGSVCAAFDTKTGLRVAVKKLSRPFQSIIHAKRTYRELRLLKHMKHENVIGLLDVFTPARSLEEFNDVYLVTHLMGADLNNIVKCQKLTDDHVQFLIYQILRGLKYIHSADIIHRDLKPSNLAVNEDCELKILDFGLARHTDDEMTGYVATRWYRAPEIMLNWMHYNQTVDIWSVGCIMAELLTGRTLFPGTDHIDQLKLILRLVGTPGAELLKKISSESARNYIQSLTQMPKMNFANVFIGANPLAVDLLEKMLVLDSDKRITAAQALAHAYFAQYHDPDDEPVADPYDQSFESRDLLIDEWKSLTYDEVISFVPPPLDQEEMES", "assay": "p38 alpha Inhibition", "conditions": "not given", "units": {"IC50": "nM"}, "values": [{"smiles": "c1ccc(-c2nc(Nc3ccncc3)c3ccccc3n2)cc1", "IC50": 457}, {"smiles": "Brc1ccccc1-c1nc(Nc2ccncc2)c2ccccc2n1", "IC50": 285}, {"smiles": "Nc1ccc2nc(-c3ccccc3F)nc(Nc3ccncc3)c2c1", "IC50": 168}, {"smiles": "c1ccc(-c2nc(NCc3ccncc3)c3ccccc3n2)cc1", "IC50": 1200}, {"smiles": "Fc1ccc(-c2nc(Nc3ccncc3)c3ccccc3n2)cc1", "IC50": 439}, {"smiles": "Cc1ccccc1-c1nc(Nc2ccncc2)c2ccccc2n1", "IC50": 345}, {"smiles": "Clc1ccccc1-c1nc(Nc2ccncc2)c2ccccc2n1", "IC50": 170}, {"smiles": "Fc1ccccc1-c1nc(Nc2ccncc2)c2ccccc2n1", "IC50": 114}, {"smiles": "COc1cccc(Nc2nc(-c3ccccc3)nc3ccccc23)c1", "IC50": 578}]}, {"biological_target": "MAPK14 (UniProt Q16539)", "assay": "p38 alpha Inhibition", "conditions": "concentration not given here", "units": {"inhibition": "%"}, "values": [{"smiles": "c1ccc(-c2nc(Nc3ccncn3)c3ccccc3n2)cc1", "inhibition": 97}, {"smiles": "Oc1ccc(Nc2nc(-c3ccccc3)nc3ccccc23)cc1", "inhibition": 63}, {"smiles": "Brc1ccccc1-c1nc(Nc2ccncc2)c2ccccc2n1", "inhibition": 99}, {"smiles": "OCCc1ccc(Nc2nc(-c3ccccc3)nc3ccccc23)cc1", "inhibition": 34}, {"smiles": "COc1ccc(Nc2nc(-c3ccccc3)nc3ccccc23)cc1", "inhibition": 16}, {"smiles": "COc1cccc(CNc2ccc3nc(-c4ccccc4F)nc(Nc4ccncc4)c3c2)c1", "inhibition": 96}, {"smiles": "c1ccc(-c2nc(NCCc3ccccn3)c3ccccc3n2)cc1", "inhibition": 16}, {"smiles": "CCC(C)c1ccc(Nc2nc(-c3ccccc3)nc3ccccc23)cc1", "note": "(stereo not drawn)", "inhibition": 10}, {"smiles": "Oc1cccc(Nc2nc(-c3ccccc3)nc3ccccc23)c1", "inhibition": 19}, {"smiles": "Fc1cccc(F)c1-c1nc(Nc2ccncc2)c2ccccc2n1", "inhibition": 97}, {"smiles": "c1ccc(-c2nc(NCc3ccncc3)c3ccccc3n2)cc1", "inhibition": 64}, {"smiles": "Fc1ccc(-c2nc(Nc3ccncc3)c3ccccc3n2)cc1", "inhibition": 92}, {"smiles": "Fc1cccc(-c2nc(Nc3ccncc3)c3ccccc3n2)c1", "inhibition": 68}, {"smiles": "c1ccc(-c2nc(NCc3cccnc3)c3ccccc3n2)cc1", "inhibition": 54}, {"smiles": "Fc1ccc(F)c(CNc2nc(-c3ccccc3)nc3ccccc23)c1", "inhibition": 63}, {"smiles": "Cc1ccccc1-c1nc(Nc2ccncc2)c2ccccc2n1", "inhibition": 99}, {"smiles": "N#Cc1cccc(Nc2nc(-c3ccccc3)nc3ccccc23)c1", "inhibition": 13}, {"smiles": "c1ccc(Nc2nc(-c3ccccc3)nc3ccccc23)cc1", "inhibition": 45}, {"smiles": "Clc1cccc(-c2nc(NCc3ccccc3)c3ccccc3n2)c1", "inhibition": 37}, {"smiles": "Oc1ccccc1Nc1nc(-c2ccccc2)nc2ccccc12", "inhibition": 28}, {"smiles": "c1ccc(-c2nc(Nc3cccnc3)c3ccccc3n2)cc1", "inhibition": 45}, {"smiles": "COc1ccccc1Nc1nc(-c2ccccc2)nc2ccccc12", "inhibition": 37}, {"smiles": "c1ccc(-c2nc(Nc3ncccn3)c3ccccc3n2)cc1", "inhibition": 3}, {"smiles": "Fc1ccccc1-c1nc(Nc2ccncc2)c2cccnc2n1", "inhibition": 97}, {"smiles": "COc1cc2nc(-c3ccccc3Cl)nc(Nc3ccncc3)c2cc1OC", "inhibition": 97}, {"smiles": "O=[N+]([O-])c1ccc2nc(-c3ccccc3F)nc(Nc3ccncc3)c2c1", "inhibition": 91}, {"smiles": "Clc1ccccc1-c1nc(Nc2ccncc2)c2ccccc2n1", "inhibition": 100}, {"smiles": "Nc1ccc2c(Nc3ccncc3)nc(-c3ccccc3F)nc2c1", "inhibition": 94}, {"smiles": "CC(C)N(c1ccncc1)c1nc(-c2ccccc2)nc2ccccc12", "inhibition": 69}, {"smiles": "c1ccc(-c2nc(Nc3ccc4[nH]ccc4c3)c3ccccc3n2)cc1", "inhibition": 70}, {"smiles": "COc1ccc(N(c2ccncc2)c2nc(-c3ccccc3)nc3ccccc23)cc1", "inhibition": 47}, {"smiles": "COc1ccc(-c2nc(Nc3ccncc3)c3ccccc3n2)cc1", "inhibition": 5}, {"smiles": "CN(C)c1ccc(CNc2nc(-c3ccccc3)nc3ccccc23)cc1", "inhibition": 25}, {"smiles": "Clc1ccc(-c2nc(NCc3ccncc3)c3ccccc3n2)cc1", "inhibition": 51}, {"smiles": "Fc1ccccc1-c1nc(Nc2ccncc2)c2ccccc2n1", "inhibition": 99}, {"smiles": "Clc1cccc(Cl)c1-c1nc(Nc2ccncc2)c2ccccc2n1", "inhibition": 85}, {"smiles": "c1ccc(-c2nc(Nc3cccc4[nH]ccc34)c3ccccc3n2)cc1", "inhibition": 72}, {"smiles": "COc1ccc(CNc2ccc3nc(-c4ccccc4F)nc(Nc4ccncc4)c3c2)cc1", "inhibition": 96}, {"smiles": "COc1cccc(Nc2nc(-c3ccccc3)nc3ccccc23)c1", "inhibition": 95}]}]}
